Data set [1] deals with HBV (HepG2.117 cell line, inducibly HBV producing). In words: Anti-HBV activity: intracellular HBV DNA by real-time PCR in HepG2.117 cells after 3 days of treatment. The class given is cell-based, hepatitis B virus. The following applies: Hepatitis B virus, HepG2.117, 72 h, HepG2.117 cells, 3 days of treatment, intracellular HBV DNA by real-time PCR; mean value; read-out: EC50 (μM, mean value). Put shortly:
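Tet-off HepG2.117; HBV replication induced (no doxycycline); serial compound dilutions, 3 d; intracellular HBV DNA by real-time PCR, HBV-specific primers/probe.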
Background: Real-time PCR tracks product formation cycle by cycle.

A short description of another data set: in vitro. It counts as cell-based. As to conditions: human, HepG2 or HepG2.117 cells, ATPlite, mean value; for CC50 at 4 days: 4-days incubation (values marked with *); for CC50 at 3 days: 3-days incubation (unmarked values). Put shortly:
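Luminescent ATP quantitation served as the viability endpoint following a 3- or 4-day incubation with test compounds.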
A general note: ATP-based viability assays read luminescence as a measure of living cells.

The record followed here is US20230091047A1 (priority 2019, published 2023).

For the compound `COc1ccc(CNc2nc3c(c(=O)n2-c2cccc(C(F)(F)F)c2)CCN(C(=O)c2ccc(Cl)c(Cl)c2)C3)cc1` [Compound C7, 7-(3,4-dichlorobenzoyl)-2-{[(4-methoxyphenyl)methyl]amino}-3-[3-(trifluoromethyl)phenyl]-5,6,7,8-tetrahydropyrido[3,4-d]pyrimidin-4(3H)-one], the EC50 in data set [1] is 2.03 µM. In addition, the CC50 at 4 days in “in vitro” is over 50 µM.

Take `COc1ccc(CNc2nc3c(c(=O)n2-c2cccc(OC)c2)CCN(C(=O)c2ccc(Cl)c(Cl)c2)C3)cc1` [Compound C8, 7-(3,4-dichlorobenzoyl)-3-(3-methoxyphenyl)-2-{[(4-methoxyphenyl)methyl]amino}-5,6,7,8-tetrahydropyrido[3,4-d]pyrimidin-4(3H)-one]: the EC50 in data set [1] amounted to 1 µM. In addition, the CC50 at 3 days in “in vitro” was over 50 µM.

As for `COc1ccccc1-n1c(NCc2cccnc2)nc2c(c1=O)CCN(C(=O)c1ccc(Cl)c(Cl)c1)C2` [Compound C9, 7-(3,4-dichlorobenzoyl)-3-(2-methoxyphenyl)-2-{[(pyridin-3-yl)methyl]amino}-5,6,7,8-tetrahydropyrido[3,4-d]pyrimidin-4(3H)-one], in data set [1], the EC50 worked out at 11.6 µM. In “in vitro”, this compound gave a CC50 at 4 days of over 50 µM.

In the case of `COc1ccccc1-n1c(NCc2ccccc2)nc2c(c1=O)CCN(C(=O)c1ccc(Cl)c(Cl)c1)C2` [Compound C10, 2-(benzylamino)-7-(3,4-dichlorobenzoyl)-3-(2-methoxyphenyl)-5,6,7,8-tetrahydropyrido[3,4-d]pyrimidin-4(3H)-one], the EC50 in data set [1] amounted to 6.21 µM. Besides, the CC50 at 4 days in the data set “in vitro” was over 50 µM.

For `CNc1nc2c(c(=O)n1-c1ccccc1OC)CCN(C(=O)c1ccc(Cl)c(Cl)c1)C2` [Compound C11, 7-(3,4-dichlorobenzoyl)-3-(2-methoxyphenyl)-2-(methylamino)-5,6,7,8-tetrahydropyrido[3,4-d]pyrimidin-4(3H)-one], in data set [1], the EC50 was found to be 6.41 µM. In addition, the CC50 at 4 days in the data set “in vitro” was over 50 µM.

For the compound `COc1ccccc1-n1c(NCc2ccccn2)nc2c(c1=O)CCN(C(=O)c1ccc(Cl)c(Cl)c1)C2` [Compound C12, 7-(3,4-dichlorobenzoyl)-3-(2-methoxyphenyl)-2-{[(pyridin-2-yl)methyl]amino}-5,6,7,8-tetrahydropyrido[3,4-d]pyrimidin-4(3H)-one], the EC50 in data set [1] is 5.95 µM. In “in vitro”, the CC50 at 4 days was over 50 µM.

Turning to `COc1ccccc1-n1c(NCc2nccs2)nc2c(c1=O)CCN(C(=O)c1ccc(Cl)c(Cl)c1)C2` [Compound C13, 7-(3,4-dichlorobenzoyl)-3-(2-methoxyphenyl)-2-{[(1,3-thiazol-2-yl)methyl]amino}-5,6,7,8-tetrahydropyrido[3,4-d]pyrimidin-4(3H)-one], in data set [1], the EC50 was 8.75 µM. This compound came in with a CC50 at 4 days in “in vitro” of 38.9 µM.

With `COc1ccc(CNc2nc3c(c(=O)n2-c2ccccc2F)CCN(C(=O)c2ccc(Cl)c(Cl)c2)C3)cc1` [Compound C14, 7-(3,4-dichlorobenzoyl)-3-(2-fluorophenyl)-2-{[(4-methoxyphenyl)methyl]amino}-5,6,7,8-tetrahydropyrido[3,4-d]pyrimidin-4(3H)-one], the EC50 in data set [1] was 1 µM. The compound also returned a CC50 at 3 days in “in vitro” of over 50 µM.

Turning to `COc1ccc(CNc2nc3c(c(=O)n2-c2ccccc2Cl)CCN(C(=O)c2ccc(Cl)c(Cl)c2)C3)cc1` [Compound C15, 3-(2-chlorophenyl)-7-(3,4-dichlorobenzoyl)-2-{[(4-methoxyphenyl)methyl]amino}-5,6,7,8-tetrahydropyrido[3,4-d]pyrimidin-4(3H)-one], the EC50 in data set [1] came out at 1.08 µM. In the data set “in vitro”, this compound showed a CC50 at 3 days of over 50 µM.

`COc1ccccc1-n1c(NCc2cscn2)nc2c(c1=O)CCN(C(=O)c1ccc(Cl)c(Cl)c1)C2` [Compound C16, 7-(3,4-dichlorobenzoyl)-3-(2-methoxyphenyl)-2-{[(1,3-thiazol-4-yl)methyl]amino}-5,6,7,8-tetrahydropyrido[3,4-d]pyrimidin-4(3H)-one]: in data set [1], the EC50 turned out to be 2.29 µM. This compound also displayed a CC50 at 4 days in the data set “in vitro” of 45.3 µM.

Consider `COc1ccccc1CNc1nc2c(c(=O)n1-c1ccccc1OC)CCN(C(=O)c1ccc(Cl)c(Cl)c1)C2` [Compound C17, 7-(3,4-dichlorobenzoyl)-3-(2-methoxyphenyl)-2-{[(2-methoxyphenyl)methyl]amino}-5,6,7,8-tetrahydropyrido[3,4-d]pyrimidin-4(3H)-one], for which, in data set [1], the EC50 was determined as 0.97 µM. In addition, half-maximal cytotoxicity in “in vitro” (CC50 at 4 days) was put at 28.9 µM.

Regarding `COc1cccc(CNc2nc3c(c(=O)n2-c2ccccc2OC)CCN(C(=O)c2ccc(Cl)c(Cl)c2)C3)c1` [Compound C18, 7-(3,4-dichlorobenzoyl)-3-(2-methoxyphenyl)-2-{[(3-methoxyphenyl)methyl]amino}-5,6,7,8-tetrahydropyrido[3,4-d]pyrimidin-4(3H)-one], the EC50 in data set [1] was 3.27 µM. This compound also registered a cytotoxic concentration (CC50) at 4 days in “in vitro” of over 50 µM.

Take `COc1ccccc1-n1c(NCc2cncs2)nc2c(c1=O)CCN(C(=O)c1ccc(Cl)c(Cl)c1)C2` [Compound C19, 7-(3,4-dichlorobenzoyl)-3-(2-methoxyphenyl)-2-{[(1,3-thiazol-5-yl)methyl]amino}-5,6,7,8-tetrahydropyrido[3,4-d]pyrimidin-4(3H)-one]: the EC50 in data set [1] worked out at 8.77 µM. Besides, in the data set “in vitro”, the CC50 at 3 days is over 50 µM.

On to `COc1ccccc1-n1c(NCCc2ccccc2)nc2c(c1=O)CCN(C(=O)c1ccc(Cl)c(Cl)c1)C2` [Compound C20, 7-(3,4-dichlorobenzoyl)-3-(2-methoxyphenyl)-2-[(2-phenylethyl)amino]-5,6,7,8-tetrahydropyrido[3,4-d]pyrimidin-4(3H)-one], for which the half-maximal effective concentration (EC50) in data set [1] is 8.92 µM. In “in vitro”, the CC50 at 4 days was found to be 23.1 µM.

Consider `O=C(c1ccc(Cl)c(Cl)c1)N1CCc2c(nc(NCc3ccccc3)[nH]c2=O)C1` [Compound C21, 2-(benzylamino)-7-(3,4-dichlorobenzoyl)-5,6,7,8-tetrahydropyrido[3,4-d]pyrimidin-4(3H)-one], for which the EC50 in data set [1] is 7.51 µM. For the same compound, the midpoint of cytotoxicity in the data set “in vitro”, the CC50 at 4 days, lay at 24.7 µM.

`COc1ccccc1-n1c(NCC(C)C)nc2c(c1=O)CCN(C(=O)c1ccc(Cl)c(Cl)c1)C2` [Compound C22, 7-(3,4-dichlorobenzoyl)-3-(2-methoxyphenyl)-2-[(2-methylpropyl)amino]-5,6,7,8-tetrahydropyrido[3,4-d]pyrimidin-4(3H)-one]: the EC50 in data set [1] was 21.7 µM. In “in vitro”, the CC50 at 4 days came to 26.2 µM.

Take `COc1ccccc1-n1c(NCc2ccc(C(F)(F)F)cc2)nc2c(c1=O)CCN(C(=O)c1ccc(Cl)c(Cl)c1)C2` [Compound C23, 7-(3,4-dichlorobenzoyl)-3-(2-methoxyphenyl)-2-({[4-(trifluoromethyl)phenyl]methyl}amino)-5,6,7,8-tetrahydropyrido[3,4-d]pyrimidin-4(3H)-one]: the EC50 in data set [1] was 2.56 µM. For the same compound, the cytotoxic concentration (CC50) at 4 days in the data set “in vitro” is over 50 µM.

On to `COc1ccccc1-n1c(NC(C)C)nc2c(c1=O)CCN(C(=O)c1ccc(Cl)c(Cl)c1)C2` [Compound C24, 7-(3,4-dichlorobenzoyl)-3-(2-methoxyphenyl)-2-[(propan-2-yl)amino]-5,6,7,8-tetrahydropyrido[3,4-d]pyrimidin-4(3H)-one], for which the EC50 in data set [1] worked out at 2.25 µM. This compound yielded a CC50 at 4 days in “in vitro” of over 50 µM.

As to `COc1ccccc1-n1c(NCC2CCN(C(C)=O)CC2)nc2c(c1=O)CCN(C(=O)c1ccc(Cl)c(Cl)c1)C2` [Compound C25, 2-{[(1-acetylpiperidin-4-yl)methyl]amino}-7-(3,4-dichlorobenzoyl)-3-(2-methoxyphenyl)-5,6,7,8-tetrahydropyrido[3,4-d]pyrimidin-4(3H)-one], in data set [1], the EC50 is 44.7 µM. The compound further yielded a CC50 at 3 days in the data set “in vitro” of over 50 µM.

Take `COc1ccccc1-n1c(NCc2ccc3c(c2)OCO3)nc2c(c1=O)CCN(C(=O)c1ccc(Cl)c(Cl)c1)C2` [Compound C26, 2-{[(2H-1,3-benzodioxol-5-yl)methyl]amino}-7-(3,4-dichlorobenzoyl)-3-(2-methoxyphenyl)-5,6,7,8-tetrahydropyrido[3,4-d]pyrimidin-4(3H)-one]: the EC50 in data set [1] amounted to 1.72 µM. In the data set “in vitro”, the CC50 at 3 days was over 50 µM.

Regarding `COc1ccccc1-n1c(NCc2ccc(S(C)(=O)=O)cc2)nc2c(c1=O)CCN(C(=O)c1ccc(Cl)c(Cl)c1)C2` [Compound C27, 7-(3,4-dichlorobenzoyl)-2-({[4-(methanesulfonyl)phenyl]methyl}amino)-3-(2-methoxyphenyl)-5,6,7,8-tetrahydropyrido[3,4-d]pyrimidin-4(3H)-one], the EC50 in data set [1] was 1.98 µM. In the data set “in vitro”, this compound displayed a CC50 at 3 days of over 50 µM.

Regarding `COCCn1c(NCc2ccccc2)nc2c(c1=O)CCN(C(=O)c1ccc(Cl)c(Cl)c1)C2` [Compound C28, 2-(benzylamino)-7-(3,4-dichlorobenzoyl)-3-(2-methoxyethyl)-5,6,7,8-tetrahydropyrido[3,4-d]pyrimidin-4(3H)-one], the 50% effective concentration (EC50) in data set [1] worked out at 9.1 µM. In the data set “in vitro”, the CC50 at 3 days was 25.2 µM.

As for `COc1ccccc1-n1c(NCc2ccc(F)cc2F)nc2c(c1=O)CCN(C(=O)c1ccc(Cl)c(Cl)c1)C2` [Compound C29, 7-(3,4-dichlorobenzoyl)-2-{[(2,4-difluorophenyl)methyl]amino}-3-(2-methoxyphenyl)-5,6,7,8-tetrahydropyrido[3,4-d]pyrimidin-4(3H)-one], the EC50 in data set [1] stood at 7.43 µM. Further, in “in vitro”, the midpoint of cytotoxicity, the CC50 at 3 days, lay at 23.3 µM.

With `COc1ccccc1-n1c(NCc2ccc(Cl)cc2Cl)nc2c(c1=O)CCN(C(=O)c1ccc(Cl)c(Cl)c1)C2` [Compound C30, 7-(3,4-dichlorobenzoyl)-2-{[(2,4-dichlorophenyl)methyl]amino}-3-(2-methoxyphenyl)-5,6,7,8-tetrahydropyrido[3,4-d]pyrimidin-4(3H)-one], the EC50 in data set [1] is over 50 µM. In “in vitro”, this compound registered a CC50 at 3 days of over 50 µM.

For orientation: EC50 means the concentration needed to bring the measured effect to its halfway point. The term CC50 denotes the concentration at which the toxic effect on the cells reaches its halfway point. Low readings indicate harm at low concentration, high ones better tolerance by the cells.
